In patent publication US20140274688A1, “MOLECULES HAVING CERTAIN PESTICIDAL UTILITIES, AND INTERMEDIATES, COMPOSITIONS, AND PROCESSES RELATED THERETO” (DOW AGROSCIENCES LLC, priority 2013, published 2014):
Where two headings read alike, the source gives them in different places.

How the values were obtained:
[1] = tested on: Beet Armyworm (Spodoptera exigua) ("BAW"); assay: Bioassay on Beet Armyworm (BAW), 128-well diet tray assay, percent mortality; type: in vivo; conditions: for pest or weed control at 50 µg/cm2: Spodoptera exigua, read-out: BAW; for BAW rating (percent mortality class): Beet Armyworm, 128-well diet tray assay
How it was run: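 Larvae in covered diet trays held at 25 °C, 14:10 light-dark, for five to seven days. Percent mortality scored per well and averaged over eight wells per treatment.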

[2] = tested on: Cabbage Looper (Trichoplusia ni) ("CL"); assay: Bioassay on Cabbage Looper (CL), 128-well diet tray assay, percent mortality; type: in vivo; conditions: for pest or weed control at 50 µg/cm2: Trichoplusia ni, read-out: CL; for CL rating (percent mortality class): Cabbage Looper, 128-well diet tray assay
How it was run: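 Larvae held in covered diet trays at 25 °C, 14:10 light-dark, for five to seven days. Percent mortality scored per well and averaged over eight wells.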

[3] = tested on: Yellow Fever Mosquito "YFM" (Aedes aegypti); conditions: rating of mortality, Yellow Fever Mosquito

Compound	pest or weed control at 50 µg/cm2 [1] [%]	pest or weed control at 50 µg/cm2 [2] [%]	further results
Cc1ccc(C(C)C)c(N2C(=O)C(C)S/C2=N\C(=O)NCCc2ccc(-c3ncn(-c4ccc(OC(F)(F)F)cc4)n3)cc2)c1 (stereo not shown) [P57, (Z)-1-(3-(2-isopropyl-5-methylphenyl)-5-methyl-4-oxothiazolidin-2-ylidene)-3-(4-(1-(4-(trifluoromethoxy)phenyl)-1H-1,2,4-triazol-3-yl)phenethyl)urea]	50 to 100	50 to 100	YFM ([3]; Table ABC (P)): A (80-100)
CCC(CNC(=O)/N=C1\SCC(=O)N1c1ccccc1C(C)C)c1ccc(-c2ncn(-c3ccc(OC(F)(F)F)cc3)n2)cc1 (stereo not shown) [P209, (Z)-1-(3-(2-isopropylphenyl)-4-oxothiazolidin-2-ylidene)-3-(2-(4-(1-(4-(trifluoromethoxy)phenyl)-1H-1,2,4-triazol-3-yl)phenyl)butyl)urea]	50 to 100		YFM ([3]; Table ABC (P)): A (80-100)
CCC(CNC(=O)/N=C1\SCC(=O)N1c1cc(OC)ccc1C(C)C)c1ccc(-c2ncn(-c3ccc(OC(F)(F)F)cc3)n2)cc1 (stereo not shown) [P683, (Z)-1-(3-(2-isopropyl-5-methoxyphenyl)-4-oxothiazolidin-2-ylidene)-3-(2-(4-(1-(4-(trifluoromethoxy)phenyl)-1H-1,2,4-triazol-3-yl)phenyl)butyl)urea]	50 to 100		YFM ([3]; Table ABC (P)): A (80-100)
CCc1cccc(C)c1NC(=S)NC(=O)NCCCCc1ccc(-c2ncn(-c3ccc(OC(F)(F)F)cc3)n2)cc1 [PC153, 1-[(2-ethyl-6-methyl-phenyl)carbamothioyl]-3-[4-[4-[1-[4-(trifluoromethoxy)phenyl]-1,2,4-triazol-3-yl]phenyl]butyl]urea]			YFM ([3]; Table ABC (PC)): B (More than 0-Less than 80)
Cc1ccccc1N1C(=O)CS/C1=N\C(=O)NCCCc1cccc(-c2ncn(-c3ccc(OC(F)(F)F)cc3)n2)c1 [P118, (Z)-1-(4-oxo-3-(o-tolyl)thiazolidin-2-ylidene)-3-(3-(3-(1-(4-(trifluoromethoxy)phenyl)-1H-1,2,4-triazol-3-yl)phenyl)propyl)urea]	50 to 100	50 to 100	
Cc1ccc(C(C)C)c(N2C(=O)CS/C2=N\C(=O)NCCCCc2cccc(-c3ncn(-c4ccc(OC(F)(F)F)cc4)n3)c2)c1 [P176, (Z)-1-(3-(2-isopropyl-5-methylphenyl)-4-oxothiazolidin-2-ylidene)-3-(4-(3-(1-(4-(trifluoromethoxy)phenyl)-1H-1,2,4-triazol-3-yl)phenyl)butyl)urea]	50 to 100	50 to 100	
Cc1ccccc1N1C(=O)CS/C1=N\C(=O)NCc1ccc(-c2ncn(-c3ccc(OC(F)(F)F)cc3)n2)cc1 [P1, (Z)-1-(4-oxo-3-(o-tolyl)thiazolidin-2-ylidene)-3-(4-(1-(4-(trifluoromethoxy)phenyl)-1H-1,2,4-triazol-3-yl)benzyl)urea]	50 to 100	50 to 100	
CCc1cccc(C)c1NC(=S)NC(=O)NC1CC1c1ccc(-c2ncn(-c3ccc(OC(F)(F)F)cc3)n2)cc1 (stereo not shown) [F24, N-(2-ethyl-6-methylphenyl)-N′-[2-(4-{1-[4-(trifluoromethoxy)phenyl]-1H-1,2,4-triazol-3-yl}phenyl)cyclopropyl]dicarbonimidothioic diamide]			BAW rating (percent mortality class) [1]: A (50-100); CL rating (percent mortality class) [2]: A (50-100)
CCCc1ccccc1N1C(=O)CS/C1=N\C(=O)NC1CC1c1ccc(-c2ncn(-c3ccc(OC(F)(F)F)cc3)n2)cc1 (stereo not shown) [F30, (Z)-1-(4-oxo-3-(2-propylphenyl)thiazolidin-2-ylidene)-3-(2-(4-(1-(4-(trifluoromethoxy)phenyl)-1H-1,2,4-triazol-3-yl)phenyl)cyclopropyl)urea]			BAW rating (percent mortality class) [1]: A (50-100); CL rating (percent mortality class) [2]: A (50-100)
CC(C)c1ccccc1NC(=S)NC(=O)NCc1ccc(-c2ncn(-c3ccc(OC(F)(F)C(F)(F)F)cc3)n2)cc1 [F15, N-(4-{1-[4-(pentafluoroethoxy)phenyl]-1H-1,2,4-triazol-3-yl}benzyl)-N′-[2-(propan-2-yl)phenyl]dicarbonimidothioic diamide]			BAW rating (percent mortality class) [1]: A (50-100); CL rating (percent mortality class) [2]: A (50-100)
Cc1ccc(C(C)C)c(N2C(=O)CS/C2=N\C(=O)NC(C)C(C)c2ccc(-c3ncn(-c4ccc(OC(F)(F)F)cc4)n3)cc2)c1 (stereo not shown) [P66, (Z)-1-(3-(2-isopropyl-5-methylphenyl)-4-oxothiazolidin-2-ylidene)-3-(3-(4-(1-(4-(trifluoromethoxy)phenyl)-1H-1,2,4-triazol-3-yl)phenyl)butan-2-yl)urea]	50 to 100	50 to 100	
Cc1ccccc1N1C(=O)CS/C1=N\C(=O)NCCc1cccc(-c2ncn(-c3ccc(OC(F)(F)F)cc3)n2)c1 [P74, (Z)-1-(4-oxo-3-(o-tolyl)thiazolidin-2-ylidene)-3-(3-(1-(4-(trifluoromethoxy)phenyl)-1H-1,2,4-triazol-3-yl)phenethyl)urea]	50 to 100	50 to 100	
CC(Cc1ccc(-c2ncn(-c3ccc(OC(F)(F)F)cc3)n2)cc1)NC(=O)NC(=S)Nc1ccccc1C(C)C (stereo not shown) [F4, N-[2-(propan-2-yl)phenyl]-N′-[1-(4-{1-[4-(trifluoromethoxy)phenyl]-1H-1,2,4-triazol-3-yl}phenyl)propan-2-yl]dicarbonimidothioic diamide]			BAW rating (percent mortality class) [1]: A (50-100); CL rating (percent mortality class) [2]: A (50-100)
Cc1ccc(C(C)C)c(N2C(=O)CS/C2=N\C(=O)NCCCc2cccc(-c3ncn(-c4ccc(OC(F)(F)F)cc4)n3)c2)c1 [P124, (Z)-1-(3-(2-isopropyl-5-methylphenyl)-4-oxothiazolidin-2-ylidene)-3-(3-(3-(1-(4-(trifluoromethoxy)phenyl)-1H-1,2,4-triazol-3-yl)phenyl)propyl)urea]	50 to 100	50 to 100	
CC(C)c1ccccc1N1C(=O)CS/C1=N\C(=O)NCCCc1cccc(-c2ncn(-c3ccc(OC(F)(F)F)cc3)n2)c1 [P120, (Z)-1-(3-(2-isopropylphenyl)-4-oxothiazolidin-2-ylidene)-3-(3-(3-(1-(4-(trifluoromethoxy)phenyl)-1H-1,2,4-triazol-3-yl)phenyl)propyl)urea]	50 to 100	50 to 100	
COc1ccc(N2C(=O)CS/C2=N\C(=O)NCCCc2cccc(-c3ncn(-c4ccc(OC(F)(F)F)cc4)n3)c2)c(C)c1 [P131, (Z)-1-(3-(4-methoxy-2-methylphenyl)-4-oxothiazolidin-2-ylidene)-3-(3-(3-(1-(4-(trifluoromethoxy)phenyl)-1H-1,2,4-triazol-3-yl)phenyl)propyl)urea]	50 to 100	50 to 100	
CCCc1ccc(C)cc1N1C(=O)CS/C1=N\C(=O)NCc1ccc(-c2ncn(-c3ccc(OC(F)(F)F)cc3)n2)cc1 [P8, (Z)-1-(3-(5-methyl-2-propylphenyl)-4-oxothiazolidin-2-ylidene)-3-(4-(1-(4-(trifluoromethoxy)phenyl)-1H-1,2,4-triazol-3-yl)benzyl)urea]	50 to 100	50 to 100	
Cc1ccc(N2C(=O)CS/C2=N\C(=O)NCCCc2ccc(-c3ncn(-c4ccc(OC(F)(F)F)cc4)n3)cc2)c(C(C)C)c1 [P102, (Z)-1-(3-(2-isopropyl-4-methylphenyl)-4-oxothiazolidin-2-ylidene)-3-(3-(4-(1-(4-(trifluoromethoxy)phenyl)-1H-1,2,4-triazol-3-yl)phenyl)propyl)urea]	50 to 100	50 to 100	
Cc1ccc(C(C)C)c(NC(=S)NC(=O)NC2CC2c2ccc(-c3ncn(-c4ccc(OC(F)(F)F)cc4)n3)cc2)c1 (stereo not shown) [F28, N-[5-methyl-2-(propan-2-yl)phenyl]-N′-[2-(4-{1-[4-(trifluoromethoxy)phenyl]-1H-1,2,4-triazol-3-yl}phenyl)cyclopropyl]dicarbonimidothioic diamide]			BAW rating (percent mortality class) [1]: A (50-100); CL rating (percent mortality class) [2]: A (50-100)
CCc1ccccc1N1C(=O)CS/C1=N\C(=O)NCCCCc1cccc(-c2ncn(-c3ccc(OC(F)(F)F)cc3)n2)c1 [P171, (Z)-1-(3-(2-ethylphenyl)-4-oxothiazolidin-2-ylidene)-3-(4-(3-(1-(4-(trifluoromethoxy)phenyl)-1H-1,2,4-triazol-3-yl)phenyl)butyl)urea]	50 to 100	50 to 100	
CC(C)c1cc(F)ccc1N1C(=O)CS/C1=N\C(=O)NCCCc1cccc(-c2ncn(-c3ccc(OC(F)(F)F)cc3)n2)c1 [P129, (Z)-1-(3-(4-fluoro-2-isopropylphenyl)-4-oxothiazolidin-2-ylidene)-3-(3-(3-(1-(4-(trifluoromethoxy)phenyl)-1H-1,2,4-triazol-3-yl)phenyl)propyl)urea]	50 to 100	50 to 100	
CC(C)c1cc(F)ccc1N1C(=O)CS/C1=N\C(=O)NCCCCc1ccc(-c2ncn(-c3ccc(OC(F)(F)F)cc3)n2)cc1 [P155, (Z)-1-(3-(4-fluoro-2-isopropylphenyl)-4-oxothiazolidin-2-ylidene)-3-(4-(4-(1-(4-(trifluoromethoxy)phenyl)-1H-1,2,4-triazol-3-yl)phenyl)butyl)urea]	50 to 100	50 to 100	
CCc1cccc(C)c1N1C(=O)CS/C1=N\C(=O)NCCCc1cccc(-c2ncn(-c3ccc(OC(F)(F)F)cc3)n2)c1 [P127, (Z)-1-(3-(2-ethyl-6-methylphenyl)-4-oxothiazolidin-2-ylidene)-3-(3-(3-(1-(4-(trifluoromethoxy)phenyl)-1H-1,2,4-triazol-3-yl)phenyl)propyl)urea]	50 to 100	50 to 100	
